Reference: US12209086B2, “FGFR3 inhibitor compounds” (ELI LILLY AND COMPANY, priority 2021, dated 2025)
pIC50: −log10 of the molar value.

Target: T1, FGFR3 protein (Homo sapiens, UniProt P22607)
T1 construct: purchased Reaction Biology 1068
Assay: FGFR3 enzyme assay (KinEASE-TK HTRF kinase assay)
Assay type: biochemical
Details: 0.25 nM enzyme, ATP at Km, 15 min pre-incubation on ice, 30 min at 30° C.
Method: FGFR3 and FGFR1 Enzyme Assay
Enzyme activity was monitored using the KinEASE™-TK Assay Kit (Cisflio, Cat. No. 62TK0PEC) according to the manufacturer's instructions. All assays were performed at the respective KmATP for each kinase in KinEASE™ Kinase Buffer.
Titration of compounds were performed in a half-log manner in 100% dimethyl sulfoxide (DMSO) starting at 1 uM. Prior to the initiation of the reaction by adenosine triphosphate (ATP), FGFR1 protein and compounds were pre-incubated for 15 minutes at room temperature, and FGFR3 protein and compounds were pre-incubated on ice for 15 minutes. Reactions proceeded for 30 min at 30° C. Plates were quenched by the addition of the Anti-TK cryptate antibody/Streptavidin-XL665 mixture.
Ratios were converted to a percent of control (POC) using a ratiometric emission factor. One hundred POC was determined using no test compound, and 0 POC was determined in the presence of 1 uM of an appropriate control inhibitor.

T1 sequence (P22607 23-806): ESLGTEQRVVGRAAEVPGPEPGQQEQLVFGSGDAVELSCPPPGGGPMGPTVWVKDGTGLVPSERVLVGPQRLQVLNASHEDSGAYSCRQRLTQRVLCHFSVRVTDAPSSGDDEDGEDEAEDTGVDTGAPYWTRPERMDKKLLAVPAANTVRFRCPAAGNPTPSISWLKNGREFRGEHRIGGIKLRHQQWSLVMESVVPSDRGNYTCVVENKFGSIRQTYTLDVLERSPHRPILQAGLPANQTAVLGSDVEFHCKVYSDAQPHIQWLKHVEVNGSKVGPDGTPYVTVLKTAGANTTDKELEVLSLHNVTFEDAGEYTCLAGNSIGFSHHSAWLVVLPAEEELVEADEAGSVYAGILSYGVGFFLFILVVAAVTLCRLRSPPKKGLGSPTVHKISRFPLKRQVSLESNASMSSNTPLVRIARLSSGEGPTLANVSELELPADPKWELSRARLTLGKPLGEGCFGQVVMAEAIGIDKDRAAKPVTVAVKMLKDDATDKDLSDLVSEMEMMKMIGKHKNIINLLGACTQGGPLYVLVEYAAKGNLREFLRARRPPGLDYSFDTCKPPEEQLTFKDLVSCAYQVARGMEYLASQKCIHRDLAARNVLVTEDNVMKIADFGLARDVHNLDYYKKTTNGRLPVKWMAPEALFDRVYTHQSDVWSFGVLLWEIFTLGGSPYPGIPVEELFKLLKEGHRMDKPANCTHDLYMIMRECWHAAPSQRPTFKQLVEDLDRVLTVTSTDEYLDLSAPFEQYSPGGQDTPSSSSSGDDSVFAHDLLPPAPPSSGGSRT

| Compound | pIC50 |
| --- | --- |
| Cc1c(-c2cc(OC(C)c3ccccc3-c3ccon3)n3c(C#N)cnc3c2)nnn1C1CCN(C#N)CC1 (single isomer, unassigned) [Example 142, 7-[1-(1-Cyano-4-piperidyl)-5-methyl-triazol-4-yl]-5-[1-(2-isoxazol-3-ylphenyl)ethoxy] imidazo [1,2-a]pyridine-3-carbonitrile] | > 7.00 |
| Cc1c(-c2cc(OC(c3ccccn3)C(C)(C)C)n3c(C#N)cnc3c2)nnn1C1CCN(C#N)CC1 (single isomer, unassigned) [Example 264, 7-[1-(1-Cyano-4-piperidyl)-5-methyl-triazol-4-yl]-5-[2,2-dimethyl-1-(2-pyridyl)propoxy] imidazo[1,2-a]pyridine-3-carbonitrile] | > 7.00 |
| CCC(Oc1cc(-c2nnn(C3CCN(C#N)CC3)c2C)cc2ncc(C#N)n12)c1ccc(F)cn1 (single isomer, unassigned; isomer 1) [Example 51, 7-[1-(1-Cyano-4-piperidyl)-5-methyl-triazol-4-yl]-5-[1-(5-fluoro-2-pyridyl)propoxy]imidazo[1,2-a]pyridine-3-carbonitrile, Isomer 1] | > 7.30 |
| COCC(Oc1cc(-c2nnn(C3CCN(C#N)CC3)c2C)cn2ncc(C#N)c12)c1ccc(F)cn1 (single isomer, unassigned; isomer 1) [Example 53, 6-[1-(1-Cyano-4-piperidyl)-5-methyl-triazol-4-yl]-4-[1-(5-fluoro-2-pyridyl)-2-methoxy-ethoxy]pyrazolo[1,5-a]pyridine-3-carbonitrile, Isomer 1] | > 7.30 |
| COCC(Oc1cc(-c2nnn(C3CCN(C#N)CC3)c2C)cn2ncc(C#N)c12)c1cncc(C(F)(F)F)c1 (single isomer, unassigned; isomer 1) [Example 61, 6-[1-(1-cyano-4-piperidyl)-5-methyl-triazol-4-yl]-4-[2-methoxy-1-[5-(trifluoromethyl)-3-pyridyl]ethoxy]pyrazolo [1,5-a]pyridine-3-carbonitrile, Isomer 1] | > 7.30 |
| Cc1c(-c2cc(OC(CO)c3ccc(F)cn3)n3c(C#N)cnc3c2)nnn1C1CCN(C#N)CC1 (single isomer, unassigned; isomer 1) [Example 63, 7-[1-(1-Cyano-4-piperidyl)-5-methyl-triazol-4-yl]-5-[1-(5-fluoro-2-pyridyl)-2-hydroxy-ethoxy]imidazo[1,2-a]pyridine-3-carbonitrile, Isomer 1] | > 7.30 |
| Cc1c(-c2cc(OC(C)c3cc(Cl)cnn3)c3c(C#N)cnn3c2)nnn1C1CCN(C#N)CC1 (single isomer, unassigned; isomer 1) [Example 68, 4-[1-(5-Chloropyridazin-3-yl)ethoxy]-6-[1-(1-cyano-4-piperidyl)-5-methyl-triazol-4-yl]pyrazolo[1,5-a]pyridine-3-carbonitrile, Isomer 1] | > 7.30 |
| Cc1c(-c2cc(OC(C)c3cccc4cnsc34)c3c(C#N)cnn3c2)nnn1C1CCN(C#N)CC1 (single isomer, unassigned; isomer 1) [Example 79, 4-[1-(1,2-benzothiazol-7-yl)ethoxy]-6-[1-(1-cyano-4-piperidyl)-5-methyl-triazol-4-yl]pyrazolo[1,5-a]pyridine-3-carbonitrile, Isomer 1] | > 7.30 |
| Cc1c(-c2cc(OC(CO)c3ccc(F)cn3)n3c(Cl)cnc3c2)nnn1C1CCN(C#N)CC1 (single isomer, unassigned; isomer 2) [Example 47, 4-[4-[3-Chloro-5-[1-(5-fluoro-2-pyridyl)-2-hydroxy-ethoxy]imidazo[1,2-a]pyidine-7-yl]-5-methyl-triazol-1-yl]piperidine-1-carbonitrile, Isomer 2] | > 7.30 |
| Cc1c(-c2cc(OC(C)c3ccccc3C(=O)N(C)C)c3c(C#N)cnn3c2)nnn1C1CCN(C#N)CC1 (single isomer, unassigned; isomer 2) [Example 75, 2-[1-[3-cyano-6-[1-(1-cyano-4-piperidyl)-5-methyl-triazol-4-yl]pyrazolo[1,5-a]pyridin-4-yl]oxyethyl]-N,N-dimethyl-benzamide, Isomer 2] | > 7.00 |

Now from value to compound:

| pIC50 | Compound |
| --- | --- |
| > 7.30 | Cc1c(-c2cc(N[C@H](C)c3ccccn3)c3c(C#N)cnn3c2)cnn1C1CCN(C2CN(C#N)C2(C)C)CC1 (single isomer, unassigned) [Example 94] |
| > 7.30 | Cc1c(-c2cc(OC(C)c3cncc(C(F)(F)F)n3)n3c(C#N)cnc3c2)nnn1C1CCN(C#N)CC1 (single isomer, unassigned) [Example 99, 7-[1-(1-Cyano-4-piperidyl)-5-methyl-triazol-4-yl]-5-[1-[6-(trifluoromethyl)pyrazin-2-yl]ethoxy]imidazo [1,2-a]pyridine-3-carbonitrile] |
| > 7.30 | Cc1c(-c2cc(OC(CO)c3ccc(F)cn3)c3c(Cl)cnn3c2)nnn1C1CC(N2CCN(C#N)CC2)C1 (single isomer, unassigned) [Example 152, Cis-4-[3-[4-[3-Chloro-4-[1-(5-fluoro-2-pyridyl)-2-hydroxy-ethoxy]pyrazolo[1,5-a]pyridin-6-yl]-5-methyl-triazol-1-yl]cyclobutyl] piperazine-1-carbonitrile] |
| > 7.30 | Cc1c(-c2cc(OCC(O)c3ccc(F)cn3)c3c(Cl)cnn3c2)nnn1C1CCN(C#N)CC1 (single isomer, unassigned) [Example 154, 4-[4-[3-Chloro-4-[2-(5-fluoro-2-pyridyl)-2-hydroxy-ethoxy]pyrazolo[1,5-a]pyridin-6-yl]-5-methyl-triazol-1-yl]piperidine-1-carbonitrile] |
| > 7.30 | Cc1c(-c2cc(OCC(O)c3ccc(F)cn3)c3c(Cl)cnn3c2)nnn1C1CCN(C#N)CC1 (single isomer, unassigned) [Example 155, 4-[4-[3-Chloro-4-[2-(5-fluoro-2-pyridyl)-2-hydroxy-ethoxy]pyrazolo[1,5-a]pyridin-6-yl]-5-methyl-triazol-1-yl]piperidine-1-carbonitrile] |
| > 7.30 | Cc1c(-c2cc(OCC(C)(O)c3ccc(F)cn3)c3c(Cl)cnn3c2)nnn1C1CCN(C#N)CC1 (single isomer, unassigned) [Example 156, 4-[4-[3-Chloro-4-[2-(5-fluoro-2-pyridyl)-2-hydroxy-propoxy]pyrazolo[1,5-a]pyridin-6-yl]-5-methyl-triazol-1-yl]piperidine-1-carbonitrile] |
| > 7.30 | Cc1c(-c2cc(OCC(C)(O)c3ccc(F)cn3)c3c(F)cnn3c2)nnn1C1CCN(C#N)CC1 (single isomer, unassigned) [Example 157, 4-[4-[3-Fluoro-4-[2-(5-fluoro-2-pyridyl)-2-hydroxy-propoxy]pyrazolo[1,5-a]pyridin-6-yl]-5-methyl-triazol-1-yl]piperidine-1-carbonitrile] |
| > 7.30 | COc1cc(-c2cnn(C3CCN(C4CN(C#N)C4(C)C)CC3)c2C)cn2ncc(C#N)c12 (single isomer, unassigned) [Example 173, 3-[4-(4-[3-Cyano-4-methoxypyrazolo[1,5-a]pyridin-6-yl]-5-methylpyrazol-1-yl)piperidin-1-yl]-2,2-dimethylazetidine-1-carbonitrile] |
| > 7.30 | COc1cc(-c2cnn(C3CN(C4CCN(C#N)CC4(F)F)C3)c2C)cn2ncc(C#N)c12 (single isomer, unassigned) [Example 179, 4-[3-(4-[3-Cyano-4-methoxypyrazolo[1,5-a]pyridin-6-yl]-5-methylpyrazol-1-yl)azetidin-1-yl]-3,3-difluoropiperidine-1-carbonitrile] |
| > 7.30 | Cc1c(-c2cc(OC(CO)c3ccc(F)cn3)c3c(Cl)cnn3c2)nnn1[C@H]1C[C@@H](N2CC3COCC(C2)N3C#N)C1 (single isomer, unassigned) [Example 280] |
| > 7.30 | Cc1c(-c2cc(O[C@H](C)c3ccccn3)n3c(C#N)cnc3c2)nnn1C1CCN(C#N)C(C2CC2)C1 (single isomer, unassigned) [Example 281] |
| > 7.30 | Cc1c(-c2cc(OC(C)c3cncc(C(F)(F)F)c3)n3c(C#N)cnc3c2)nnn1C1CCN(C#N)CC1 (single isomer, unassigned; isomer 1) [Example 41, 7-[1-(1-Cyano-4-piperidyl)-5-methyl-triazol-4-yl]-5-[1-[5-(trifluoromethyl)-3-pyridyl]ethoxy]imidazo[1,2-a]pyridine-3-carbonitrile, Isomer 1] |
| > 7.30 | Cc1c(-c2cc(OC(CO)c3ccc(F)cn3)c3c(C#N)cnn3c2)cnn1C1CCN(C#N)CC1 (single isomer, unassigned; isomer 1) [Example 43, 6-[1-(1-Cyano-4-piperidyl)-5-methyl-pyrazol-4-yl]-4-[1-(5-fluoro-2-pyridyl)-2-hydroxy-ethoxy]pyrazolo[1,5-a]pyridine-3-carbonitrile, Isomer 1] |
| > 7.30 | Cc1c(-c2cc(OC(c3ccc(F)cn3)C(F)(F)F)n3c(C#N)cnc3c2)nnn1C1CCN(C#N)CC1 (single isomer, unassigned; isomer 1) [Example 48, 7-[1-(1-Cyano-4-piperidyl)-5-methyl-triazol-4-yl]-5-[2,2,2-trifluoro-1-(5-fluoro-2-pyridyl)ethoxy]imidazo[1,2-a]pyridine-3-carbonitrile, Isomer 1] |
| > 7.30 | COCC(Oc1cc(-c2nnn(C3CCN(C#N)CC3)c2C)cc2ncc(C#N)n12)c1ccc(F)cn1 (single isomer, unassigned; isomer 1) [Example 49, 7-[1-(1-Cyano-4-piperidyl)-5-methyl-triazol-4-yl]-5-[1-(5-fluoro-2-pyridyl)-2-methoxy-ethoxy]imidazo[1,2-a]pyridine-3-carbonitrile, Isomer 1] |
